Tested on: murine thymus cells
Experiment: lymphocyte stimulation assay (LSA), in vitro lymphocyte proliferation of murine thymus cells cultured in the presence of Concanavalin A
Assay type: cell-based, male C57B1/6 mice
Conditions: in vitro; Con A present; 48 hours at 37° C.; score at drug level with maximum activity
Text: On the other hand, the activity of the compounds of the present invention, as immunoregulator agents, is based on a study of their ability to stimulate, in vitro, the lymphocyte proliferation of murine thymus cells cultured in the presence of Concanavalin A (Con A) by employing the general evaluation procedure of V. J. Merluzzi et al., as described in the Journal of Clinical and Experimental Immunology, Vol. 22, p. 486 (1975).
486 (1975). The cells were derived from male C57B1/6 mice of from 6-8 weeks age, purchased from the Jackson Laboratories of Bar Harbor, Maine and the Con A was obtained from Sigma Chemicals of St. Louis, Missouri. Each cell culture (consisting of 0.10 ml. thymus cells stock solution, 0.05 ml. of Con A stock solution and 0.05 ml. of drug solution) was performed in quadruplicate and cellular proliferation was measured, after 48 hours of incubation at 37° C., by pulsing each culture with ^3 H-thymidine (0.01 ml. of specific activity 1.9 C/mM, obtained from Schwarz-Mann, Inc. of Orangeburg, N.Y.) and then determining the incorporation of ^3 H-thymidine into cellular desoxyribonucleic acid (DNA) by an assessment of radioactivity using a liquid scintillation counter.

SMILES | LSA Activity
O=C(CNCc1cccs1)Nc1nccs1 [X=H, R1=H, R2=2-thenyl, N-(2-thiazolyl)-α-(2-thenylamino)acetamide] | +++ (those having an activity greater than levamisole (27,000±1,000 cpm) were scored as +++)
CC(N)C(=O)Nc1nccs1 (stereo not drawn) [X=H, R1=CH3, R2=hydrogen, N-(2-thiazolyl)-α-aminopropionamide] | +++ (those having an activity greater than levamisole (27,000±1,000 cpm) were scored as +++)
O=C(CNCC1CCCCC1)Nc1nccs1 [X=H, R1=H, R2=cyclohexylmethyl, N-(2-thiazolyl)-α-cyclohexylmethylaminoacetamide] | ++ (those equal to levamisole (22,000±900 cpm) were scored as ++)
CC(C)C(N)C(=O)Nc1nccs1 (stereo not drawn) [X=H, R1=iso-C3 H7, R2=hydrogen, N-(2-thiazolyl)-α-aminoisovaleramide] | ++ (those equal to levamisole (22,000±900 cpm) were scored as ++)
O=C(CNCc1ccco1)Nc1nccs1 [X=H, R1=H, R2=2-furfuryl, N-(2-thiazolyl)-α-(2-furfurylamino)acetamide] | ++ (those equal to levamisole (22,000±900 cpm) were scored as ++)
CCCNCC(=O)Nc1nccs1 [X=H, R1=H, R2=n-propyl, N-(2-thiazolyl)-α-(n-propylamino)acetamide] | ++ (those equal to levamisole (22,000±900 cpm) were scored as ++)
O=C(CNCc1ccc(C(F)(F)F)cc1)Nc1nccs1 [X=H, R1=H, R2=p-trifluoromethylbenzyl] | ++ (those equal to levamisole (22,000±900 cpm) were scored as ++)
NCC(=O)Nc1nccs1 [X=H, R1=H, R2=hydrogen, N-(2-thiazolyl)-α-aminoacetamide] | ++ (those equal to levamisole (22,000±900 cpm) were scored as ++)
Cc1csc(NC(=O)CNCCc2ccccc2)n1 [X=CH3, R1=H, R2=β-phenylethyl, N-(4-methyl-2-thiazolyl)-α-(β-phenylethylamino)acetamide] | +++ (those having an activity greater than levamisole (27,000±1,000 cpm) were scored as +++)
O=C(CNCc1ccc2c(c1)OCO2)Nc1nccs1 [X=H, R1=H, R2=3,4-methylenedioxybenzyl, N-(2-thiazolyl)-α-(3,4-methylenedioxybenzylamino)acetamide] | ++ (those equal to levamisole (22,000±900 cpm) were scored as ++)
COc1ccc(CNCC(=O)Nc2nccs2)cc1 [X=H, R1=H, R2=p-methoxybenzyl, N-(2-thiazolyl)-α-(p-methoxybenzylamino)acetamide] | +++ (those having an activity greater than levamisole (27,000±1,000 cpm) were scored as +++)
Cc1csc(NC(=O)C(C)N)n1 (stereo not drawn) [X=CH3, R1=CH3, R2=hydrogen, N-(4-methyl-2-thiazolyl)-α-aminopropionamide] | +++ (those having an activity greater than levamisole (27,000±1,000 cpm) were scored as +++)
CCNCC(=O)Nc1nccs1 [X=H, R1=H, R2=ethyl, N-(2-thiazolyl)-α-ethylaminoacetamide] | +++ (those having an activity greater than levamisole (27,000±1,000 cpm) were scored as +++)
Cc1csc(NC(=O)C(N)C(C)C)n1 (stereo not drawn) [X=CH3, R1=iso-C3 H7, R2=hydrogen, N-(4-methyl-2-thiazolyl)-α-aminoisovaleramide] | +++ (those having an activity greater than levamisole (27,000±1,000 cpm) were scored as +++)
CNC(C)C(=O)Nc1nccs1 (stereo not drawn) [X=H, R1=CH3, R2=methyl, N-(2-thiazolyl)-α-methylaminopropionamide] | +++ (those having an activity greater than levamisole (27,000±1,000 cpm) were scored as +++)
Cc1csc(NC(=O)C(N)Cc2ccccc2)n1 (stereo not drawn) [X=CH3, R1=C6 H5 CH2, R2=hydrogen, N-(4-methyl-2-thiazolyl)-α-amino-β-phenylpropionamide] | +++ (those having an activity greater than levamisole (27,000±1,000 cpm) were scored as +++)
Cc1ccc(CNCC(=O)Nc2nccs2)cc1 [X=H, R1=H, R2=p-methylbenzyl, N-(2-thiazolyl)-α-(p-methylbenzylamino)acetamide] | + (those superior to Con A activity but less than levamisole (10,000±700 cpm) were scored as +)
CCCCNCC(=O)Nc1nccs1 [X=H, R1=H, R2=n-butyl, N-(2-thiazolyl)-α-(n-butylamino)acetamide] | ++ (those equal to levamisole (22,000±900 cpm) were scored as ++)
Cc1csc(NC(=O)C2CCCCN2)n1 (stereo not shown) [X=CH3, R=2-piperidyl, N-(4-methyl-2-thiazolyl)piperidine-2-carboxamide] | +++ (those having an activity greater than levamisole (27,000±1,000 cpm) were scored as +++)
C=CCNCC(=O)Nc1nccs1 [X=H, R1=H, R2=allyl, N-(2-thiazolyl)-α-allylaminoacetamide] | ++ (those equal to levamisole (22,000±900 cpm) were scored as ++)
O=C(CNC1CCCCCCC1)Nc1nccs1 [X=H, R1=H, R2=cyclooctyl, N-(2-thiazolyl)-α-cyclooctylaminoacetamide] | ++ (those equal to levamisole (22,000±900 cpm) were scored as ++)
O=C(CNCc1ccc(Cl)cc1)Nc1nccs1 [X=H, R1=H, R2=p-chlorobenzyl, N-(2-thiazolyl)-α-(p-chlorobenzylamino)acetamide] | ++ (those equal to levamisole (22,000±900 cpm) were scored as ++)
Cc1csc(NC(=O)CNCc2ccccc2)n1 [X=CH3, R1=H, R2=benzyl, N-(4-methyl-2-thiazolyl)-α-benzylaminoacetamide] | +++ (those having an activity greater than levamisole (27,000±1,000 cpm) were scored as +++)
O=C(CNCC1CCCO1)Nc1nccs1 (stereo not drawn) [X=H, R1=H, R2=2-tetrahydrofurfuryl, N-(2-thiazolyl)-α-(2-tetrahydrofurfurylamino)acetamide] | ++ (those equal to levamisole (22,000±900 cpm) were scored as ++)

Same assay, conditions: standard compound; Con A present; 48 hours at 37° C.

SMILES | 3H-thymidine incorporated (average counts per minute)
c1ccc([C@H]2CN3CCSC3=N2)cc1 [levamisole, reference compound] | 22,000±900 cpm

Source: US4217355A, “Amide therapeutic agents” (Pfizer Inc., priority 1978, dated 1980)
